For assay [1], the target named is T1, GST-tagged Tnks-2 (873-1166 aa) (Homo sapiens, UniProt Q9H2K2).
T1 construct: GST-tagged Tnks-2 (873-1166 aa, prepared in-house); made in house
As to the kind of experiment: TNKS 2 activity ELISA (autoparsylation assay). The assay is classed as biochemical. The conditions noted are these: read-out: IC50 tankyrase 2 (ELISA assay).

Assay [2] addresses T2, GST-tagged Tankyrase-2 (873-1166 aa) (Homo sapiens, UniProt Q9H2K2).
T2 construct: GST-tagged Tankyrase-2 (873-1166 aa)
As to the kind of experiment: Tankyrase 2 autoparsylation assay (HTRF enzyme assay). The format is biochemical. (In TR-FRET formats the signal depends on donor and acceptor labels being close together.)

Another assay concerns tankyrase 1/2. Briefly: Measurement of cellular inhibition of tankyrase (Axin2 level, Luminex based assay, DLD1 cells). The conditions noted are these: 24 hours, increase of Axin2 level, read-out: EC50 tankyrase 1/2 (cell assay). How it is done:
Measurement of Cellular Inhibition of Tankyrase
Since Tankyrases have been described to modulate cellular level of Axin2 (Huang et al., 2009; Nature) the increase of Axin2 level is used as read-out for determination of cellular inhibition of Tankyrases in a Luminex based assay.
Cells of the colon carcinoma cell line DLD1 are plated in 96 well plates with 1.5×10^4 cells per well. Next day, cells are treated with a serial-dilution of test compound in seven steps as triplicates with a final DMSO concentration of 0.3%. After 24 hours, cells are lysed in lysis buffer (20 mM Tris/HCl pH 8.0, 150 mM NaCl, 1% NP40, 10% Glycerol) and lysates are cleared by centrifugation through a 96 well filter plate (0.65 μm). Axin2 protein is isolated from cell lysates by incubation with a monoclonal anti-Axin2 antibody (R&D Systems #MAB6078) that is bound to fluorescent carboxybeads. Then, bound Axin2 is specifically detected with a polyclonal anti-Axin2 antibody (Cell Signaling #2151) and an appropriate PE-fluorescent secondary antibody. The amount of isolated Axin2 protein is determined in a Luminex^200 machine (Luminex Corporation) according to the manufacturer's instruction by counting 100 events per well. […] For analysis, the obtained data were normalized against the untreated solvent control and fitted for determination of the EC50 values using the Assay Explorer software (Accelrys).

SMILES strings stand for the structures.

IC50 and EC50 data for seven compounds are collected here from patent publication US9339503B2, “Tetrahydro-quinazolinone derivatives as TANK and PARP inhibitors” (MERCK PATENT GMBH, priority 2012, dated 2016).

Usually IC50 stands for the concentration needed to halve the response being measured.

T2 sequence (Q9H2K2 873-1166): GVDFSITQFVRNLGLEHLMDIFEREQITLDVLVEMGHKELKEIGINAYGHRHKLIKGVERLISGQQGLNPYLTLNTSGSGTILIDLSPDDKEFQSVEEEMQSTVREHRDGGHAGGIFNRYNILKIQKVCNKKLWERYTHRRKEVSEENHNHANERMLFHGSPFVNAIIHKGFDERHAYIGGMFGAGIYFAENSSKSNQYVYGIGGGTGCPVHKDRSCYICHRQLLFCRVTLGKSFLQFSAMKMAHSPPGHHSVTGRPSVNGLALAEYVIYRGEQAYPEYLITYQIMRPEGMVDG
T1 sequence (Q9H2K2 873-1166): as above

For `COc1cccc(N2CCN(c3nc4c(c(=O)[nH]3)CCCC4)CC2)c1` [Compound A7, 2-[4-(3-Methoxyphenyl)piperazin-1-yl]-5,6,7,8-tetrahydro-3H-quinazolin-4-one], the values for the half-inhibitory concentration (IC50) in assay [1] and in assay [2] were less than 300 nM and 300 to 3000 nM, respectively. Besides, the EC50 in the assay with tankyrase 1/2 was 300 to 3000 nM.
As for `COc1ccccc1N1CCN(c2nc3c(c(=O)[nH]2)CCCC3)CC1` [Compound A12, 2-[4-(2-Methoxyphenyl)piperazin-1-yl]-5,6,7,8-tetrahydro-3H-quinazolin-4-one], the IC50 in assay [1] was less than 300 nM; in assay [2], 300 to 3000 nM. Further, the EC50 in the assay on tankyrase 1/2 lay in the range of 300 to 3000 nM.
Take `O=c1[nH]c(N2CCN(c3ccccc3Cl)CC2)nc2c1CCCC2` [Compound A9, 2-[4-(2-Chlorophenyl)piperazin-1-yl]-5,6,7,8-tetrahydro-3H-quinazolin-4-one]: the figures for the IC50 in assay [1] and in assay [2] were less than 300 nM and 300 to 3000 nM, respectively. For the same compound, in the assay on tankyrase 1/2, the EC50 was 300 to 3000 nM.
For the compound `COc1cc(F)ccc1N1CCN(c2nc3c(c(=O)[nH]2)CCCC3)CC1` [Compound A36, 2-[4-(4-fluoro-2-methoxy-phenyl)piperazin-1-yl]-5,6,7,8-tetrahydro-3H-quinazolin-4-one], the IC50 in assay [1] was less than 300 nM; in assay [2] it was 300 to 3000 nM. In the assay with tankyrase 1/2, the EC50 was in the range of 300 to 3000 nM.
For `N#Cc1ccccc1N1CCN(c2nc3c(c(=O)[nH]2)CCCC3)CC1` [Compound A33, 2-[4-(4-oxo-5,6,7,8-tetrahydro-3H-quinazolin-2-yl)piperazin-1-yl]benzonitrile], the values for the IC50 in assay [1] and in assay [2] were less than 300 nM and 300 to 3000 nM, respectively. The EC50 in the assay with tankyrase 1/2 lay in the range of 300 to 3000 nM.
Regarding `O=c1[nH]c(N2CCN(c3ccc(F)cc3)CC2)nc2c1CCCC2` [Compound A6, 2-[4-(4-Fluorophenyl)piperazin-1-yl]-5,6,7,8-tetrahydro-3H-quinazolin-4-one], the values for the IC50 in assay [1] and in assay [2] were less than 300 nM and 300 to 3000 nM, respectively. Besides, the EC50 in the assay with tankyrase 1/2 was in the range of 300 to 3000 nM.
Regarding `COc1ccc(N2CCN(c3nc4c(c(=O)[nH]3)CCCC4)CC2)cc1` [Compound A3, 2-[4-(4-methoxy-phenyl)-piperazin-1-yl]-5,6,7,8-tetrahydro-3H-quinazolin-4-one], the values for the IC50 in assay [1] and in assay [2] were less than 300 nM and 300 to 3000 nM, respectively. Further, in the assay on tankyrase 1/2, the EC50 is 300 to 3000 nM.
